Biological target: T1, Ste2 receptor (Saccharomyces cerevisiae, UniProt D6VTK4)
T1 construct: The wild type strain and a cav1 mutant strain, transformed with the plasmid; endogenous in cells; host or cells: S. cerevisiae wild type and cav1 mutant strains carrying the FUS1-lacZ reporter plasmid
Test: FUS1-lacZ β-galactosidase reporter assay, Ste2-mediated signaling
Assay type: cell-based, S. cerevisiae
Settings: 30 minutes incubation
Description: In order to determine whether the CAV1 gene is involved in Ste2-mediated signaling, the effects of a cav1 mutation on the levels of FUS1-lacZ induction in response to o-factor were studied as described below. Transformants were grown to the mid-exponential phase in the medium SC without uracil. 100 μt aliquots of cultures were incubated in 96-well plates in the presence of increasing concentrations of α-factor at 30° C. for 30 minutes prior to assaying β-galactosidase activity. 20 μl of 6X Z-buffer (0.6 M sodium phosphate, pH 7.0, 60 mM KCl, 6 mM MgCl2, 1.6% (v/v) β-mercaptoethanol) containing 10 mM chlorophenolred-β-D-galactoside (CPRG) and 2.5% Triton X-100 was added to each aliquot followed by incubation at room temperature for 30-60 min. The enzymatic reactions were stopped by adding […] of 1 M sodium carbonate and A575 values were determined using a Biomek Plate Reader (Beckman).
The wild type strain and a cav1 mutant strain, transformed with the plasmid Cpl 584 encoding the FUS 1-lacZ reporter gene, were incubated in the presence of α-factor for 30 minutes prior to the β-galactosidase assay. […] Furthermore, the rate of ligand-independent endocytosis of Ste2 receptor, and of Ste3 receptor, respectively, decreased by approximately two-fold in the cav1 mutant. Therefore, an increase in Ste2β mediated signaling may be attributed to the reduced internalization of yeast GPCRs.

T1 sequence (D6VTK4 whole entry): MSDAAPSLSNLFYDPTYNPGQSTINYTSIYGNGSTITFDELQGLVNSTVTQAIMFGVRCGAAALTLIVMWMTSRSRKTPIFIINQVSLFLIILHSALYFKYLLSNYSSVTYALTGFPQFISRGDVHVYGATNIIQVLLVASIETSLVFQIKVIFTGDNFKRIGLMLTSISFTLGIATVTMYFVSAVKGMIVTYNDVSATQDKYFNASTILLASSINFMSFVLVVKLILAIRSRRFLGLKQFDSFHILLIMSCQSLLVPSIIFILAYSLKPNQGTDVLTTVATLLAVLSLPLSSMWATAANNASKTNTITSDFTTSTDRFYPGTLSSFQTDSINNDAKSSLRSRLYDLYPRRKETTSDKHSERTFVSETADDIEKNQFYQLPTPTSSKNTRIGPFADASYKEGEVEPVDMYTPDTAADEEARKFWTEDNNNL

Substance: α-factor
- higher levels of ligand-induced β-galactosidase activity in mutant strain compared with wild type strain (cav1 mutant versus wild type): 50-100%
- estimated EC50 values for α-factor (wild type strain versus cav1 mutant strain): virtually identical

Reference: patent US6251605A, “Yeast cells having mutations in Cav1 and uses therefor” (priority 1999, dated 2001)
